The conditions of data set [1]: cited from earlier work.
In data set [2] the test system is uninduced BL21 Star cells. The experiment in a line: Screening of detergents: lysis of uninduced cell cultures analysed by PAGE. The format is cell-based, E. coli. Conditions: for lysis of uninduced BL21 Star cells by PAGE (FIG. 1) / lysis capabilities by PAGE (FIG. 2) / lysis performance: 1% detergent in 50 mM phosphate; for lysis of uninduced BL21 Star cells by PAGE (FIG. 1) / lysis performance: 300 mM NaCl pH 7; for lysis capabilities by PAGE (FIG. 2): 300 mM NaCl pH=7, alkyl chain length 9-11; for lysis performance: compared with BugBuster; for lysis of bacterial cells: 1% detergent in 50 mM phosphate pH 7, uninduced cell cultures, compared with BugBuster and B-Per. The procedure: (§1) Cultures were grown to OD600=1.2-1.5 and then collected for lysis. One ml of culture was subjected to centrifugation (10,000×g) and lysed in 75 to 100 μl of each lysis buffer depending on optical density (OD). In some samples 10 μl of 1:100 dilution of BENZONASE® nuclease (Benzon Pharma A/S) and 10 μl of 0.5 mg/ml Lysozyme were added. Samples were allowed to incubate at room temperature for approximately 10 minutes, then spun down at 10,000×g. Supernatant was pipetted and used for subsequent activity assays and SDS-PAGE analysis. For BL21 (DE3) pLysS cultures, 2 independent lysates of each culture with and without lysozyme were prepared and tested.
(§2) For gel electrophoresis, 15 μL of each lysate was incubated with 5 μl of 4× LDS Sample buffer and 2 μl of NuPage Reducing reagent in a 70° C. heat block for 10 minutes. 5 μl of the samples were run on 4-12% NuPAGE gels (Invitrogen cat # NP0321 or NP0323) with MES SDS running buffer. SDS-PAGE gels were stained with SimplyBlue Safe Stain (Invitrogen cat# LC6065).
Screening of a wide range of detergents was performed by evaluating the lysis of uninduced cell cultures. For the first round of screening, detergents from different chemical groups were evaluated starting with some well-known detergents such as Triton X-100, Elugent, NP-7, NP-40. The lysis buffers were prepared at 1% detergent concentration in 50 mM phosphate pH 7. The detergents were compared with known lysis procedures using BugBuster® lysis reagent (Novagen), B-Per™ protein extraction reagent (Pierce), Relay 96 Protein Screen (Invitrogen), and sonication.
Other types of detergents also screened were ASB-C8 and three other synthesized sulfobetaine detergents: SB-A, SB-B, and SB-C, as well as APO-8, APO-10, APO-12 and N-dodecanoyl sucrose as 1% detergent solutions in 50 mM phosphate, 300 mM NaCl pH 7) using BL21 Star cells. […] Lane 1 is a Mark 12 Molecular Weight Standard; lane 2 is a 1% SB-A lysis solution; lane 3 is a 1% ASB-C8 lysis solution; lane 4 is a 1% SB-B lysis solution; lane 5 is a 1% SB-C lysis solution; lane 6 is a 1% APO-8 lysis solution; lane 7 is a 1% APO-10 lysis solution; lane 8 is a 1% APO-12 lysis solution; lane 9 is a 1% N-Dodecanoyl Sucrose lysis solution and lane 10 is BugBuster® HT lysis reagent. […] It is likely that the length of the alkyl chain is critical for the lysis ability of the detergent. Therefore, another round of testing was performed with detergents of the same type with alkyl chains one […] smaller and bigger than APO-10. […] One percent detergent formulations were prepared in 50 mM phosphate, 300 mM NaCl pH=7. In FIG. 2, Lane 1 is a Mark 12 Molecular Weight Standard; lane 2 is BugBuster® HT; lane 3 is a 1% APO-9 lysis solution; lane 4 is a 1% APO-10 lysis solution and lane 5 is a 1% APO-11 lysis solution.

For data set [3], the system named is BL-21-AI, BL-21-Star, BL-21 DE3. Briefly: Side by side comparison of alkylglucoside and alkylphosphine detergents as lysis reagents. The format is cell-based, E. coli. Conditions: several cell types: BL-21-AI. The procedure:
as §1, §2
Side by side comparison testing was performed of the alkylglucoside and alkylphosphine detergents with several different cell types: BL-21-AI, BL-21-Star, BL-21 DE3. In this comparison testing BugBuster® HT lysis reagent (Novagen), B-Per™ protein extraction reagent (Pierce), n-octyl-β-D-glucopyranoside, n-nonyl-β-D-glucopyranoside, and n-octyl-β-D-thioglucopyranoside, APO-9 and APO-10 were utilized. […] Further optimization and testing was concentrated on the use of APO detergents by themselves and in combination with other detergents.

Data set [4] concerns BL21-AI cells expressing GFP. Briefly: Lysis of cells expressing GFP, fluorescence of lysate. The data set is classed as cell-based, E. coli. Conditions: 0.5% in 50 mM Tris pH=7; normalized to BugBuster; average of multiple treatments. The method, then:
(§3) E. coli strain BL21 cells were transformed with plasmids expressing β-galactosidase, green fluorescent protein (GFP) or maltose binding protein (MBP) as follows. BL21-AI were transformed with pET 100 expressing n-terminal 6×His tagged GFP or n-terminally 6×His tagged LacZ (β-galactosidase). The cells were grown at 37° C. to OD600=0.4-0.5 and then induced with 1 mM IPTG and 0.1% arabinose. The expression was performed for 2-4 hours at 37° C. BL21 Star cells were transformed with plasmid expressing MBP. The cells were grown at 37° C. to OD600=0.4-0.5 and then induced with 1 mM IPTG. Protein expression was performed at 30° C. for 2-4 hours. […]
(§4) GFP activity was determined by reading fluorescence (Excitation at 395/Emission […]) of lysates (diluted 1:20 or 1:40 in 50 mM Phosphate pH 7). The raw data was recorded. LacZ activity was determined by using the β-galactosidase assay kit (IVGN cat # K1455-01). The lysate samples were diluted 1:100 and then analyzed as described in the kit manual. Results were obtained using OD420 readings in the following equation: nmoles of ONPG hydrolyzed/μL lysate=(OD420background) (1.92×10^5 nl)(dilution factor=100) (4500 nl/nmoles-cm)×(1 cm) Data was normalized to the reading received from a control sample prepared with BugBuster® or BugBuster® HT (Novagen) lysis reagents. […]

In data set [5] the test system is BL21- AI cells expressing β-galactosidase. The experiment in a line: Lysis of cells expressing β-galactosidase, β-galactosidase activity of lysate. The data set is classed as cell-based, E. coli. Conditions: 0.5% APO detergent formulation; lysozyme in the lysis buffer. The method, then:
as §3, §4

Another data set deals with BL21 Star cultures. Briefly: MBP extraction evaluated qualitatively by SDS PAGE. The data set is classed as cell-based, E. coli. Conditions: qualitative. The procedure:
as §3, with “hours. BL-21(DE3) and BL-21(DE3)pLysS cells were transformed with vector expressing N-terminally 6×His tagged LacZ (β-galactosidase) (pET 100 lacZ-IVGN cat# K100-01), N-terminal Lumio tag (Cys-Cys-Pro-Gly-Cys-Cys) and 6×His tagged Lac-Z (pET 160 LacZ), and N-terminal Lumio tag (Cys-Cys-Pro-Gly-Cys-Cys) and 6×His tagged GFP (pET 160 GFP).” for “hours.”
Following preliminary screening, more detailed testing was performed using GFP, β-galactosidase and MBP expressed in E. coli. […] The activity of the β-galactosidase was measured using the β-galactosidase activity kit (Invitrogen) as described above. The GFP activity (native state) was tested by measuring the fluorescence of the protein as described above. MBP extraction was evaluated qualitatively by SDS PAGE gel electrophoresis.

Peptide text beside a SMILES is read from it. Bounds are passed on as bounds.

As for `NC(=O)CN(CC(=O)O)CC(=O)O` [ADA], in data set [1], the “pKa(4° C.)” value is recorded as 6.80, the “pKa(20° C.)” value is given as 6.60, the “pKa(37° C.)” value is recorded as 6.43 and the “Temperature Coefficient (↑pKa/° C.)” value was 0.011 ↑pKa/° C.
Regarding `CCCCCCCCP(C)(C)=O` [APO-8, Dimethyloctylphosphine oxide], the “lysis of uninduced BL21 Star cells by PAGE (FIG. 1)” value (from here on “lysis of uninduced BL21 Star cells”) in data set [2] was “did not lyse the cells efficiently”.
In the case of `CCCCCCCCCP(C)(C)=O` [APO-9, Dimethylnonylphosphine oxide], the “lysis capabilities by PAGE (FIG. 2)” value in data set [2] is recorded as “optimal lysis capabilities”. In addition, in data set [3], the “performance as lysis reagent” value is given as “performed well”.
Turning to `CCCCCCCCCCP(C)(C)=O` [APO-10, Dimethyldecylphosphine oxide], in data set [2], the “lysis of uninduced BL21 Star cells” value is “performed very well” and the “lysis capabilities by PAGE (FIG. 2)” value was “optimal lysis capabilities”. Also, in data set [3], the “performance as lysis reagent” value is “performed well”. In addition, the “difference of GFP fluorescence result from the BugBuster reagent (FIG. 3)” value in data set [4] is no more than 7%. For the same compound, the “difference of β-galactosidase extraction performance from the BPER-2 reagent (FIG. 4)” value in data set [5] is given as no more than 5%. Also, the MBP extraction result with BL21 Star cultures is reported as “similarly or slightly better”.
As for `CCCCCCCCCCCCP(C)(C)=O` [APO-12, Dimethyldodecylphosphine oxide], the “lysis of uninduced BL21 Star cells” value in data set [2] is reported as “did not lyse the cells efficiently”.
In the case of `O=S(=O)(O)CCN(CCO)CCO` [BES], in data set [1], the “pKa(4° C.)” value was 7.41, the “pKa(20° C.)” value is on record as 7.5, the “pKa(37° C.)” value is 6.88 and the “Temperature Coefficient (↑pKa/° C.)” value is reported as 0.016 ↑pKa/° C.
Regarding `O=C(O)CN(CCO)CCO` [Bicine], in data set [1], the “pKa(4° C.)” value is given as 8.64, the “pKa(37° C.)” value was 8.04 and the “Temperature Coefficient (↑pKa/° C.)” value is listed as 0.018 ↑pKa/° C.
For the compound `Cl.NCC(N)=O` [Glycinamide HCL], in data set [1], the “pKa(4° C.)” value is 8.66, the “pKa(20° C.)” value is 8.20, the “pKa(37° C.)” value is reported as 7.71 and the “Temperature Coefficient (↑pKa/° C.)” value is recorded as 0.029 ↑pKa/° C.
As for `NCC(=O)NCC(=O)O` [Glycylglycine] (H-Gly-Gly-OH), in data set [1], the “pKa(4° C.)” value is given as 8.85, the “pKa(37° C.)” value is on record as 7.92 and the “Temperature Coefficient (↑pKa/° C.)” value is recorded as 0.028 ↑pKa/° C.
On to `O=S(=O)(O)CCCN1CCN(CCO)CC1` [HEPPS], for which, in data set [1], the “pKa(4° C.)” value was 8.18, the “pKa(20° C.)” value is on record as 8.00, the “pKa(37° C.)” value is reported as 7.81 and the “Temperature Coefficient (↑pKa/° C.)” value is given as 0.011 ↑pKa/° C.
For the compound `O=S(=O)(O)CCNC(CO)(CO)CO` [TES], in data set [1], the “pKa(4° C.)” value was 7.82, the “pKa(20° C.)” value was 7.50, the “pKa(37° C.)” value is listed as 7.16 and the “Temperature Coefficient (↑pKa/° C.)” value is recorded as 0.020 ↑pKa/° C.
Take `O=C(O)CNC(CO)(CO)CO` [TRICINE]: in data set [1], the “pKa(4° C.)” value is given as 8.49, the “pKa(37° C.)” value is listed as 7.79 and the “Temperature Coefficient (↑pKa/° C.)” value is listed as 0.021 ↑pKa/° C.
Regarding `CCCCCCCCCCCCO[C@@H]1O[C@H](CO)[C@@H](O[C@H]2O[C@H](CO)[C@@H](O)[C@H](O)[C@H]2O)[C@H](O)[C@H]1O` [n-dodecyl-β-D-maldoside], the lysis performance result in data set [2] is “good lysis performance”.
With `CCCCCCCCCO[C@@H]1O[C@H](CO)[C@@H](O)[C@H](O)[C@H]1O` [n-nonyl-β-D-glucopyranoside], in data set [2], the lysis performance entry was “good lysis performance”. In addition, the “performance as lysis reagent” value in data set [3] was “performed well”.
Turning to `CCCCCCCCO[C@@H]1O[C@H](CO)[C@@H](O)[C@H](O)[C@H]1O` [n-octyl-β-D-glucopyranoside], the lysis performance entry in data set [2] is listed as “good lysis performance”. Besides, the “performance as lysis reagent” value in data set [3] is recorded as “performed well”. Besides, the MBP extraction result with BL21 Star cultures is “comparable”.
In the case of `CCCCCCCCS[C@@H]1O[C@H](CO)[C@@H](O)[C@H](O)[C@H]1O` [n-octyl-β-D-thioglucopyranoside], the lysis performance entry in data set [2] is listed as “good lysis performance”. Further, the “performance as lysis reagent” value in data set [3] is “performed well”.
As for N-dodecanoyl sucrose, the “lysis of uninduced BL21 Star cells” value in data set [2] is recorded as “did not lyse the cells efficiently”.
As for NP-40, the “lysis of bacterial cells” value in data set [2] is “not be very efficient”.
As for Triton X-100, the “lysis of bacterial cells” value in data set [2] was “not be very efficient”.

(Values after patent US20060183889A1, “Alkyl phosphine detergent products and extraction processes” (priority 2005, published 2006).)
